Columns and labels:
[1] = system: E. coli; assay: Antibiotic activity testing (TC50, dilution assay, turbidity); type: cell-based, E. coli (DH5α)
Description: The TC50 or MIC procedure for antibiotic sensitivity testing involves an antibiotic dilution assay, which can be performed in microtitre plates. A series of twofold dilutions of each antibiotic are made in the wells, and then all wells are inoculated with a standard amount of the same test organism. After incubation, growth in the presence of the various antibiotics is observed by measuring turbidity.
Bacteria: B. pumilus and E. coli (DH5α)
Bacterial cultures are initiated from the plates for 2 to 3 weeks. After this time period bacteria are streaked out on new plates from the backups stored at −80° C. Due to the lack of resistance of the bacteria, new cultures are not to be initiated from an old plate or any liquid cultures derived from old plates.
Growth medium (GM) (per liter): 10 g Bacto-tryptone, 5 g Bacto-yeast extract, 6 g HEPES (25 mM), 5.4 g NaCl, pH 7.3
Compound stocks 10 or 100 mM in DMSO stored at −20° C.
• 1. Grow B. pumilus from an LB agar plate in a flask (max. 10% volume) up to about 50 ml in growth medium (GM) • 2. Dilute overnight suspension 1:10 in GM • 3. Determine OD600 of diluted bacterial suspension • 4. Dilute bacterial suspension in GM to an OD600 of 0.03-0.04. (6 ml/plate) • 5. Add 200 μl GM to the outer wells (Row A, Row H, Column 1, Column 12) • 6. Add 100 μl GM to each well starting from C2, row 3. • 7. […]
8.3. […] Determine OD600 on plate reader.

[2] = system: white blood cells; assay: Immune cell selective uptake (immune selectivity ratio) in blood cell / buffy coat preparations; type: cell-based; settings: fluorescent compounds, FIG. 1
Description: Freshly drawn heparinised blood or buffy coat preparations are used for the determination of immune cell partition ratios. Buffy coat preparations are preferred. These may be obtained from donor blood by simple centrifugation of whole blood (4795 g for 10 minutes). Following centrifugation, plasma is collected from the surface, after which immune cells are expressed from the donor bags along with the erythrocytes lying immediately below the leukocyte layer. This ensures high yields and a sufficient population of erythrocytes for partition. 5 ml of the resulting cell suspension are dispensed into T25 culture flasks. Substrates are added to a final concentration between 1 and 10 μM and the suspensions incubated at 37° C., in a 5% CO2 atmosphere. For analysis of uptake kinetics, samples are withdrawn at 0, 2, 5, 10, 30, 60, 90, 180, or 240 min after substrate addition. For screening purposes, samples are taken at 0 and 120 minutes. […]
Uptake of fluorescent compounds is monitored using fluorescence microscopy. Excitation and emission wavelengths depend of the fluorescence label in use. […]
Cell lysates are analysed using a HP 1100 HPLC System (Agilent Technologies, Waldbronn, Germany) with a Kromasil 3.5μ […], 50×2.0 mm column and guard cartridge system (both, Phenomenex, Aschaffenburg, Germany) run at 30° C. […]
Masses are monitored according to the known or expected M/Z ratios. […]

For `CCC1OC(=O)C(C)C(OC2CC(C)(OC)C(O)C(C)O2)C(C)C(OC2OC(C)CC(NC)C2O)C(C)(O)CC(C)CN(C)C(C)C(O)C1(C)O` (centres unmarked) [Compound 96], the “TC50 in E. coli” value [1] was 28 µM.

For `COc1cc(C)c(/C(=C\C(C)=O)CC(N)C(=O)O)cc1OC` (centres unmarked) [Compound 4], the uptake rate [2] was “rapid”.

Source: patent publication US8357506B2, “Method of identifying improved conjugates of biologically active compounds” (priority 2002, dated 2013)
